Assay results: patent US7923465B2, “Cannabinoid receptor ligands, pharmaceutical compositions containing them, and process for their preparation” (priority 2005, dated 2011)

Assays:
hCB1 [1] = molecular target: T1, hCB1 (Homo sapiens, UniProt P21554); assay: Agonism of CB1 receptors expressed in CHO cells, forskolin cAMP assay (Protocol IX.2); assay type: cell-based; set-up: expressed in transfected cells; host or cells: CHO (h-CB1/CHO, G418-selected); details: for activation at 10 µM: CHO
In short: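 CHO cells stably expressing hCB1 stimulated with forskolin in Krebs buffer with 0.1% FAF BSA and 1 mM IBMX. Lysed cells' cAMP measured by chemiluminescence; EC50 from nonlinear regression of dose-response curves.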

hCB1 [2] = molecular target: T1, hCB1; assay: Antagonism of CB1 receptors expressed in CHO cells, cAMP assay against CP 55,940 (Protocol IX.1); assay type: cell-based; set-up: expressed in transfected cells; host or cells: CHO (h-CB1/CHO, G418-selected); details: h-CB1/CHO cells, cAMP, vs 30 nM CP 55,940; for inhibition at 10 µM: read-out: hCB1 Antagonism
hCB1 [3] = molecular target: T1, hCB1; assay: In vitro binding assay using hCB1-CHO membranes, [3H]-CP-55,940 displacement (Protocol II); set-up: expressed in transfected cells; host or cells: CHO (hCB1-CHO, generated in-house)
In short: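 Incubated 1 h at 37° C, stopped by rapid vacuum filtration on PEI-precoated GF/B filters, bound radioactivity counted by liquid scintillation.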

CB1 = CB1 (Rattus norvegicus, UniProt P20272); assay: GTPγS binding assay, CB1 functional assay in rat cerebellar membrane (Protocol VIII); assay type: biochemical; set-up: 10 μg rat cerebellum membrane; from tissue; host or cells: rat cerebellum membrane, prepared in-house; details: for activation at 1 µM: 1 h, read-out: Per Se % Stimulation; for inhibition at 1 µM: read-out: % Inhibition of WIN-55212-2 induced stimulation
In short: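 Rat cerebellar membranes (10 μg) incubated 1 h at 30 °C with 0.2 nM [35S]GTPγS, 50 μM GDP, and compound at 1 μM or 300 nM, alone or with 1 μM WIN 55,212-2, in Tris/MgCl2/EGTA/NaCl pH 7.4. Filter-bound radioactivity counted; percent stimulation calculated against basal specific binding (nonspecific defined by 10 μM GTPγS).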

[4] = at 10 uM, h-CB1/CHO cells, cAMP
[5] = GTPγS binding over basal, rat cerebellar membrane, tested at 1 uM
[6] = GTPγS binding, tested at 1 uM in presence of 1 μM WIN 55,212-2
[7] = bare number, no unit or concentration given

T1 sequence (P21554 whole entry): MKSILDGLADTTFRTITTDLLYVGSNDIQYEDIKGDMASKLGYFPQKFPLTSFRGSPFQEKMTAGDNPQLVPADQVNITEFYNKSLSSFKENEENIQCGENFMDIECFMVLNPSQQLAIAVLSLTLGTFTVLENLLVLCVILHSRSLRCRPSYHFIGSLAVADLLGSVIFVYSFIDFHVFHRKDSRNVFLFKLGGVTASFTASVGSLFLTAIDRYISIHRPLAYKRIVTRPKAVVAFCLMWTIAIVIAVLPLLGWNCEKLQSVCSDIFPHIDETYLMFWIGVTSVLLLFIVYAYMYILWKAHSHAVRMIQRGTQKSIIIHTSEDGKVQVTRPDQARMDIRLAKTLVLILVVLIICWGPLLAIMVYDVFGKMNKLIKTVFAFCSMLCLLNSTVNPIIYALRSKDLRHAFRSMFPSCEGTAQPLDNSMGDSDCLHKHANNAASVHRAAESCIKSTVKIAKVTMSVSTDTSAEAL
Chain of CB1 (P20272 whole entry): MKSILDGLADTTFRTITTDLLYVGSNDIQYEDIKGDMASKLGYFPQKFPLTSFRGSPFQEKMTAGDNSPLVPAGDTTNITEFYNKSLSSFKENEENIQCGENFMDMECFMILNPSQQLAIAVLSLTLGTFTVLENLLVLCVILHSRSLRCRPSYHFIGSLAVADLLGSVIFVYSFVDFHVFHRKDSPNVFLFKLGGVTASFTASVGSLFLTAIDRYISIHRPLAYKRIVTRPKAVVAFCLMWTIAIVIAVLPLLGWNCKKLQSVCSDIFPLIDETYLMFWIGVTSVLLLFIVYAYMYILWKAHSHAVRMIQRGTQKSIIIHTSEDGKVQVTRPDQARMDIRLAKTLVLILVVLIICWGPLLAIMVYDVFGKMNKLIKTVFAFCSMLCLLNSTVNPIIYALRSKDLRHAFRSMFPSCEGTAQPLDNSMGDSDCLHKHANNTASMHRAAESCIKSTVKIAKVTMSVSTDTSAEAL

Row | SMILES | melting point [°C] | activation at 10 µM (hCB1 [1]; [4]) [%] | inhibition at 10 µM (hCB1 [2]; at 10 uM) [%] | activation at 1 µM (CB1; [5]) [%] | inhibition at 1 µM (CB1; [6]) [%] | also measured
1 | O=C(NN1CCCCC1)c1nn(-c2ccc(Cl)cc2)c2c1C1CC3CC(C1)CC2C3 [Example 140, N(7)-Piperidino-5-(4′-chlorophenyl)-5,6-diazatetracyclo[7.3.1.1^3,11.0^4,8]tetradeca-4(8)-6-diene-7-carboxamide] | – | – | – | – | – | hCB1 Agonism (hCB1 [1]; [4]): 48.88% at; hCB1 Antagonism (hCB1 [2]; at 10 uM): 19.31% at; % Displacement Protocol II (hCB1 [3]): 57.85%; Per Se % Stimulation (CB1; [5]): 24.9%; % Inhibition of WIN-55212-2 induced stimulation (CB1; [6]): 71.9%
2 | CN(NC(=O)c1nn(-c2ccc(Cl)cc2)c2c1C1CCC2C1)C1CCCCC1 (centres unmarked) [Example 213, N(3)-[(N-Cyclohexyl-N-methyl)amino]-1-(4-chlorophenyl)-4,5,6,7-tetrahydro-1H-4,7-methano-indazole-3-carboxamide] | 62 | 0 | 0 | – | – | –
3 | O=C(NCc1ccccc1Cl)c1nn(-c2ccc(Cl)cc2)c2c1C1CCC2C1 (centres unmarked) [Example 221, N(3)-(2-Chlorobenzyl)-1-(4-chlorophenyl)-4,5,6,7-tetrahydro-1H-4,7-methano-indazole-3-carboxamide] | 119 to 122 | 0 | 0 | -16.7 | 95.7 | –
4 | O=C(NCc1ccc(Cl)cc1Cl)c1nn(-c2ccc(Cl)cc2Cl)c2c1C1CCC2C1 (centres unmarked) [Example 251, N(3)-(2,4-Dichlorobenzyl)-1-(2,4-dichlorophenyl)-4,5,6,7-tetrahydro-1H-4,7-methano-indazole-3-carboxamide] | 57 to 59 | 37 | 0 | – | – | –
5 | O=C(NNc1ccccc1Cl)c1nn(-c2ccc(Cl)cc2Cl)c2c1C1CCC2C1 (centres unmarked) [Example 257, N(3)-[(2-Chlorophenyl)amino]-1-(2,4-dichlorophenyl)-4,5,6,7-tetrahydro-1H-4,7-methano-indazole-3-carboxamide] | 180 to 183 | – | – | -5.1 | 48.3 | hCB1 Agonism (hCB1 [1]; [7]): 0
6 | O=C(NNc1ccc(Cl)cc1Cl)c1nn(-c2ccc(Cl)cc2Cl)c2c1C1CCC2C1 (centres unmarked) [Example 260, N(3)-[(2,4-Dichlorophenyl)amino]-1-(2,4-dichlorophenyl)-4,5,6,7-tetrahydro-1H-4,7-methano-indazole-3-carboxamide] | – | – | – | 38 | 78.8 | hCB1 Agonism (hCB1 [1]; [7]): 0
7 | O=C(NNc1ccccc1Br)c1nn(-c2ccc(Cl)cc2Cl)c2c1C1CCC2C1 (centres unmarked) [Example 263, N(3)-[(2-Bromophenyl)amino]-1-(2,4-dichlorophenyl)-4,5,6,7-tetrahydro-1H-4,7-methano-indazole-3-carboxamide] | 159 | 16.2 | – | – | – | inhibition at 1 µM (hCB1 [2]; at 1 uM): 72.1%
8 | O=C(NC1CCCCC1)c1nn(-c2ccc(Br)cc2)c2c1C1CCC2C1 (centres unmarked) [Example 275, N(3)-Cyclohexyl-1-(4-bromophenyl)-4,5,6,7-tetrahydro-1H-4,7-methano-indazole-3-carboxamide] | 164 | 16.4 | 0 | – | – | –
